Measurements: ChEMBL document CHEMBL3507680, “University of Dundee, Gates Library screen for HepG2 cell viability”

Experiment: Human HepG2 cell viability assay in 384 well format
Format: toxicity, cell-based
Parameters: dose 125 nL, time 70.5 hour; cytotoxicity at 70.5 h: concentration not given beside the values
Conditions: HepG2 cells, read-out: Inhibition

SMILES | cytotoxicity at 70.5 h [%]
CC(C)NC(=O)NCCCOC1CCOCC1 | -4.28
CCC(NC(=O)Nc1cc(F)c(OC)c(F)c1)c1noc(C)n1 (stereo unspecified) | 0.154
O=C(Nc1cccn(CC(F)(F)F)c1=O)c1ccncc1F | -11.6
O=C(NC1CC1)NC(c1cc(F)ccc1F)C1CC1 (stereo unspecified) | -5.9
O=C(c1[nH]nc(C2CC2)c1Cl)N1CCCC1 | 3.72
O=C(NC1CCN(C2CC2)CC1)c1[nH]nc(C2CC2)c1Cl | -4.43
Cc1nn(C)c(C)c1OCC(=O)N1CCC(O)(C(F)(F)F)CC1 | -6.23
CC(C)(C)c1cc(NC(=O)CN2CCCC(Cn3cncn3)C2)on1 (stereo unspecified) | 25.7
Cc1cnn(CCCNC(=O)C2CCCCN2Cc2ccncc2)c1 (stereo unspecified) | -4.19
Cc1nccn1CCCNC(=O)C1CCCCN1Cc1ccncc1 (stereo unspecified) | -2.44
CC(C)OCCN1CCN(C(=O)c2cc(-n3cccn3)ccn2)CC1 | -4.55
Cc1cnn(CCCNC(=O)C2CCCCN2Cc2cccnc2)c1 (stereo unspecified) | 0.0952
CC(C)(C)c1cc(NC(=O)CN2CCCCC2Cn2cncn2)on1 (stereo unspecified) | -5.88
CN(C)c1cccc(C(=O)N2CCn3c(nnc3-c3ccccc3)C2)c1 | -7.74
CN(C)C(CNC(=O)NCc1ccco1)c1cccs1 (stereo unspecified) | -6.4
Cc1nc(C2(NCc3cc(C#N)ccc3F)CCCCC2)no1 | -17.2
O=C(NCCn1ccnc1)c1cncc(Br)c1 | 19.8
NC(=O)CCS(=O)(=O)Cc1ccc(OCC(F)(F)F)cc1 | -9.93
CCN(CC)S(=O)(=O)NCCc1cc(C)ccc1OC | -15.7
CCC1CN(c2cnn(C)c(=O)c2Br)CCO1 (stereo unspecified) | -1.58
CCSc1ccc(NC(=O)NC(C)c2c(C)noc2C)cn1 (stereo unspecified) | -6.61
CN(C)c1cccc(C2CCCN2S(N)(=O)=O)c1 (stereo unspecified) | -1.57

SMILES | cytotoxicity at 70.5 h [%]
O=C(NC1CCCN(c2ccc(OC(F)F)cc2)C1)c1c[nH]nn1 (stereo unspecified) | 18.5
O=C(NC1CCCN(c2ccc(OC(F)F)cc2)C1)c1cnc[nH]1 (stereo unspecified) | -11.2
NS(=O)(=O)N1CCC(CSc2ccccc2)C1 (stereo unspecified) | -9.2
Cc1nc(C2(NC(=O)NCc3cc(C#N)ccc3F)CCCC2)no1 | -10.1
OCc1ccc(CNc2ccccc2CN2CCC(O)CC2)o1 | -4.84
O=S(=O)(CCO)Cc1ccc(OCC(F)(F)F)cc1 | -9.29
COc1ccccc1CNC1(CCO)CCOCC1 | 20.6
Cc1c(Br)cccc1CNC1(CCO)CCOCC1 | -1.58
CC(C)OCCS(=O)(=O)N1CCCC1c1cccc(N(C)C)c1 (stereo unspecified) | -5.82
CCc1cnc(CN2CCC(O)(c3cc(OC)cc(OC)c3)CC2)o1 | -12.2
Cn1c(C2CC2)nc2c1CCN(CCc1ccccn1)C2 | -5.41
CCSc1ccc(NC(=O)NC(C)c2ccncc2)cn1 (stereo unspecified) | -5.74
CN(C)C(CNC(=O)N(Cc1ccco1)C1CC1)c1cccs1 (stereo unspecified) | -11.4
Cc1nnc(C(C)N(C)Cc2c(C)nn(-c3ccccc3C)c2C)o1 (stereo unspecified) | 2.96
COCCOCCNC(=O)N1CCc2c(F)ccc(F)c2C1 | 2.28
Cc1nccn1-c1ncccc1NC(=O)CCOCC(C)C | -7.64
CN(CC(N)=O)C(=O)C1Cc2cc(Cl)ccc2O1 (stereo unspecified) | -5.33
Cc1cnn(CCCNCc2csc(COc3ccccc3)n2)c1 | -3.68
Cc1ccc(C2CSCCN2C(=O)c2cc(C(N)=O)cs2)o1 (stereo unspecified) | -8.27
O=C(NC1CC1)c1ccccc1NCc1cn2cccnc2n1 | -5.34
CN1CCN(S(=O)(=O)c2ccc(Cl)c(Cl)c2)c2cnccc21 | -0.75
CN1CCN(S(=O)(=O)c2cccnc2)c2cnccc21 | -3.64

SMILES | cytotoxicity at 70.5 h [%]
CN1CCN(S(=O)(=O)c2cccc(F)c2)c2cnccc21 | -2.79
O=S(=O)(NC1CCCCC12OCCO2)c1cc(F)cc(F)c1 (stereo unspecified) | -3.19
O=S(=O)(NC1CCCCC12OCCO2)c1cc(Cl)cc(Cl)c1 (stereo unspecified) | -3.17
Cc1[nH]ncc1C(=O)NCC(CO)Cc1ccc(Cl)cc1 (stereo unspecified) | -5.24
CC(CO)(NC(=O)NCc1ccc(Br)s1)C1CC1 (stereo unspecified) | -8.92
Cc1cc2c(cc1NC(=O)NCC(C)C)OCO2 | -8.91
CC(C)c1ccc(C(C)N2CCCN(C(N)=O)CC2)cc1 (stereo unspecified) | -5.71
Cc1cc2c(cc1NC(=O)NC(C)(C)C)OCO2 | -7.87
c1ccc(Cc2nc(CNCCn3cccn3)cs2)cc1 | 1.06
CC(c1ccc(Br)cc1)N1CCCN(C(N)=O)CC1 (stereo unspecified) | -5.26
O=C(NCC(CO)Cc1ccc(Cl)cc1)c1ccncc1Cl (stereo unspecified) | -1.15
CCN(CC)S(=O)(=O)N(Cc1cccc(C)c1)Cc1ccccn1 | 19.3
Cc1cc(NCc2ccc(CS(N)(=O)=O)cc2)nc(C)n1 | -12.6
O=C1CN(CCS(=O)(=O)c2ccc(Cl)cc2)CCN1 | -11.9
CC(C)CNc1nnc(SC(C(=O)NCc2cccnc2)C(C)C)s1 (stereo unspecified) | -15.2
O=C1CCN(CCS(=O)(=O)c2ccc(Cl)cc2)CCN1 | -11.7
COc1ccccc1-c1csc(NC(=O)N2CCN(C)CC2C)n1 (stereo unspecified) | -14.7
CC(C)C(=O)NS(=O)(=O)c1ccc(F)c(C(F)(F)F)c1 | -10.6
CC(C)CCN1CCN(C(=O)c2c[nH]c(=O)[nH]2)CC1 | -8.02
COCCN1CCC(Nc2c(F)cc(C#N)cc2F)CC1 | -14.5
CCC1CN(C)c2ccccc2CN1C(=O)Nc1ccccc1OC (stereo unspecified) | 16.8
CC(C)OCCN1CCC(Nc2ccc(C#N)cc2F)CC1 | -8.23

SMILES | cytotoxicity at 70.5 h [%]
CCC1CN(C)c2ccccc2CN1C(=O)Nc1cccc(F)c1 (stereo unspecified) | -9.77
COc1ccccc1NC(=O)NC1(c2noc(CN(C)C)n2)CCCC1 | 22.4
COc1cc(CN(C)Cc2cccnc2)c(SC)cc1OC | -8.67
CC(O)CN1CCN(CCOCC(F)(F)F)CC1 (stereo unspecified) | -7.92
CC(C)(C)C(O)CN1CCN(CCOCC(F)(F)F)CC1 (stereo unspecified) | -9.97
CC(C)c1nc(CNC2CCN(C(=O)OC(C)(C)C)CC2)cs1 | -8.72
COc1ccc(CNc2cccnc2-n2cccn2)c(OC)c1OC | -11.5
Cc1nc(C2CN(Cc3ccccc3C)CCO2)no1 (stereo unspecified) | -11
CCCNC(=O)CN1CCC(NCc2csc(C(C)C)n2)CC1 | -11.5
CCS(=O)(=O)CCN(C)Cc1cc(C)ccc1OC | -13.6
CS(=O)(=O)Cc1ccc(C(=O)NCc2ccc(Cl)cc2Cl)cc1 | -6.11
COCCNC(=O)c1ccc2c(=O)n3c(nc2c1)CCCCCC3 | 7.92
O=S(=O)(NCc1ccc(S(=O)(=O)N2CCCC2)s1)c1cc(Cl)ccc1Cl | -14.9
O=S(=O)(NCc1ccc(S(=O)(=O)N2CCCC2)s1)c1ccc(F)cc1Cl | -1.37
CC(=O)N1CCC(NC(=O)NCc2ncc(-c3ccccc3)o2)CC1 | -3.53
Cc1cccc2c1NC1(CCCC1)NC2=O | -13.5
CCn1c(CN(C)Cc2cnc(C)s2)nc2c(F)cccc21 | -24.5
c1ccc(C(NCc2nnc(-c3ccco3)o2)C2CCC2)cc1 (stereo unspecified) | -14.7
CCNC(=O)CCC(=O)NC1(c2cccc(C(F)(F)F)c2)CCC1 | 16.4
COCC(O)CNc1ccc(C#N)cc1C(F)(F)F (stereo unspecified) | -9.81
